{
  "source": "patent US8637556B2",
  "about": "“Linked Myc-max small molecule inhibitors” (University of Pittsburgh—Of the Commonwealth System of …, priority 2009, dated 2014)",
  "key": {"[1]": {"target": "T1, c-Myc-Max heterodimer binding to E-Box DNA (Homo sapiens, UniProt P01106)", "T1 construct": "6xHis with TEV site (N, cleaved yes); made in house; host or cells: c-Myc: E. coli BL21DE3(pLysS); Max: E. coli M15(pRep4)", "T1 sequence (P01106 368-452, one chain of several)": "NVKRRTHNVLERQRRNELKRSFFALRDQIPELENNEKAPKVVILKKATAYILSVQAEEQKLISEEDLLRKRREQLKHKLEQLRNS", "assay": "Electrophoretic mobility shift assay (EMSA) of c-Myc-Max DNA binding", "assay_type": "biochemical", "conditions": "c-Myc-Max dimer 1 μM, 10 nM E-Box DNA", "protocol": "FIG. 17. Inhibition of c-Myc-Max DNA binding measured by electrophoretic mobility shift assay (EMSA). a. Inhibition by bivalent compounds 11, 12, 13. b. Inhibition by bivalent compounds 16, 17, 18. c. Inhibition by monovalent compounds 10074-G5 (1) and 10058-F4 (2). Inhibitor concentrations are micromolar. The c-Myc-Max dimer concentration was 1 μM in a and b, 50 nM in c.\nReactions containing c-Myc353-437 and varying concentrations of each tested inhibitor in a buffer containing 1×PBS, 1 mM EDTA; 0.1% NP40; 5% Glycerol; 1 mM DTT; 0.4 mg/mL BSA were incubated for 30 minutes, followed by addition of pre-mixed p21 Max and a synthetic double-stranded oligonucleotide containing a consensus c-Myc-binding “E-Box” element (CACGTG). The final protein concentration was 1 μM for both c-Myc353-437 and p21 Max, 10 nM E-Box DNA. The binding reaction was then allowed to proceed for an additional 15 minutes before loading on an 8% running gel (80:1 poly acrylamide:bis-acrylamide). Control experiments with the monovalent parent inhibitors 1 and 2 were similarly performed using a lower (50 nM) concentration of each protein component. Gels were run at 20° C. in 0.5×TBE and scanned on a BioRad FX molecular imager. Data were analyzed with BioRad Quantity One software.\nWe evaluated the efficacy of the linked compounds 11, 12, 13, 16, 17, 18 in inhibiting the c-Myc-Max interaction by measuring the binding of a target DNA sequence (E-Box) by the protein heterodimers in an electrophoretic mobility shift assay (EMSA). […] Of these, the best was compound 16 (LINK N1), with an IC50 in the 0.5-1.0 μM in both of the above cell lines. In contrast, higher concentrations of the compounds were required to inhibit the growth of the non-transformed rat fibroblast line TGR1 or of TGR1-derived c-Myc null rat fibroblasts reconstituted with either of the c-Myc target genes HMGA1b or MT-MC1, which restore a normal growth rate. […] The lower, albeit promising, potency of the bivalent inhibitors in cell based assays compared to ones involving purified components, and the partial lack of correlation between the first and the latter, may reflect a generally poor cell permeability of these compounds, which are relatively bulky and display higher than optimal polar surface areas. The effects of the linker chain connectivity on the compounds conformation and shape may also affect their cell permeability in a different manner from what observed for their c-Myc binding affinity, resulting in the aforementioned incomplete correlation between their performance in cell based and purified components assays (FIG. 19). […]"}, "c-Myc 363-381": {"target": "T2, c-Myc 363-381 (Homo sapiens, UniProt P01106)", "T2 construct": "The synthetic peptide c-Myc363-381 is described in Follis; host or cells: synthetic peptide", "assay": "Fluorescence polarization titration, truncated c-Myc peptide 363-381", "conditions": "Table 2; segment with binding site of 1; read-out: Binding affinity to c-Myc 363-381", "excerpt": "A c-Myc353-437 full-length bHLH-ZIP domain and its truncated version c-Myc390-439 were produced from the c-Myc/pET SKB3 construct, kindly supplied by Dr. S. K. Nair (University of Illinois, Urbana-Champaign), by insertion into the pET151D vector, encoding an N-terminal hexahistidine (6× His), separated by a TEV protease digestion site, with the TOPO® ligation system, and over-expressed in E. coli BL21DE3(pLysS). The 6× His tagged human Max isoform p21, with low homodimerization affinity^70, cloned into the pQE10 vector (Qiagen, Inc.), was over-expressed in E. coli M15(pRep4). Bacterial cultures were grown at 37° C. in LB medium to OD600≈0.8, then induced with 0.5 mM IPTG for 5 hours. Proteins were purified by Ni-agarose chromatography with a pH gradient elution. The 6× His tag of c-MYC353-437 and c-Myc390-439 was cleaved using TEV protease (the TEV protease was expressed in a pET24 vector [courtesy of S. K. Nair] and purified by Ni-agarose chromatography under native conditions). All the proteins were further purified by HPLC and lyophilized. Protein concentrations were determined by measurement of OD280. […]\nSamples were analyzed in a Photon Technology International QuantaMaster fluorimeter (Birmingham, N.J.) equipped with polymer sheet polarizers. […] Excitation and emission wavelengths were independently determined for each inhibitor. […]"}, "c-Myc 400-439": {"target": "T3, c-Myc 400-439 (Homo sapiens, UniProt P01106)", "T3 construct": "its truncated version c-Myc390-439 were produced from the c-Myc/pET SKB3 construct; 6xHis with TEV site (N, cleaved yes); made in house; host or cells: E. coli BL21DE3(pLysS)", "T3 sequence (P01106 405-454)": "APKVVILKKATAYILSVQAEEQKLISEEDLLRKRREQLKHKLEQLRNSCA", "assay": "Fluorescence polarization titration, truncated c-Myc segment", "conditions": "Table 2; segment with binding site of 2; read-out: Binding affinity to c-Myc 400-439"}},
  "data": [
    {"smiles": "O=C1NC(=S)S/C1=C\\c1ccc(C(=O)NCCCCCNC(=O)c2cccc(Nc3ccc([N+](=O)[O-])c4nonc34)c2)cc1", "note": "[compound 12, N-[5-({3-[(7-nitro-2,1,3-benzoxadiazol-4-yl)amino]phenyl}formamido)pentyl]-4-{[(5Z)-4-oxo-2-sulfanylidene-1,3-thiazolidin-5-ylidene]methyl}benzamide]", "values": [
      {"measurement": "Disruption of c-Myc-Max DNA (E-Box) binding", "setting": "[1]", "value": "Strong disruption of DNA binding"}
    ]},
    {"smiles": "O=C1NC(=S)SC1=Cc1ccc(C(=O)NCCCCCNC(=O)c2ccc(Nc3ccc([N+](=O)[O-])c4nonc34)cc2)cc1", "note": "[compound 13]", "values": [
      {"measurement": "Kd", "setting": "c-Myc 363-381", "value": "0.8 ± 0.6", "unit": "nM"},
      {"measurement": "Disruption of c-Myc-Max DNA (E-Box) binding", "setting": "[1]", "value": "Strong disruption of DNA binding"},
      {"measurement": "Kd", "setting": "c-Myc 400-439", "value": "53 ± 16", "unit": "nM"}
    ]},
    {"smiles": "CCc1ccc(/C=C2\\SC(=O)N(CCCCCCNC(=O)c3ccccc3Nc3ccc([N+](=O)[O-])c4nonc34)C2=O)cc1", "note": "[compound 16, N-{6-[(5Z)-5-[(4-ethylphenyl)methylidene]-2,4-dioxo-1,3-thiazolidin-3-yl]hexyl}-2-[(7-nitro-2,1,3-benzoxadiazol-4-yl)amino]benzamide amine]", "values": [
      {"measurement": "Disruption of c-Myc-Max DNA (E-Box) binding", "setting": "[1]", "value": "Strong disruption of DNA binding"}
    ]},
    {"smiles": "CCc1ccc(C=C2SC(=O)N(CCCCCCNC(=O)c3cccc(Nc4ccc([N+](=O)[O-])c5nonc45)c3)C2=O)cc1", "note": "[compound 17]", "values": [
      {"measurement": "Disruption of c-Myc-Max DNA (E-Box) binding", "setting": "[1]", "value": "Strong disruption of DNA binding"}
    ]}
  ]
}
